Series [1] concerns the target T1, Adenosine A1 receptor (Homo sapiens, UniProt P30542).
T1 construct: expressed in transfected cells; host or cells: CHO (Chinese hamster ovary) cells, stably double-transfected
T1 sequence (P30542 1-326): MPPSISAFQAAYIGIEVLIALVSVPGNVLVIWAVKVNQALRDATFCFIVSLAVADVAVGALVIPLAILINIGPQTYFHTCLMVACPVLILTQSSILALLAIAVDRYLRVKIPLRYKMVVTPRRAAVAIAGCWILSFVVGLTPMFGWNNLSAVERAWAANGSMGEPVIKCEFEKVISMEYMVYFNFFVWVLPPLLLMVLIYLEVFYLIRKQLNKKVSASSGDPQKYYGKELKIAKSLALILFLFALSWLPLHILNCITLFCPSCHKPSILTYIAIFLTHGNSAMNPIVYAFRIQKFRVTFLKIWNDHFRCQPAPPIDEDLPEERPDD
The experiment in a line: FLIPR intracellular Ca2+ functional assay, recombinant CHO cells (A1/Gα6qi4myr). The class given is cell-based. To be noted: read-out: EC50 values (agonist activity at adenosine receptors) A1. The method, then:
(§1) In Vitro Functional Assays with Recombinant Cell Lines:
(§2) Functional assays were performed by detection of agonist-induced changes in the intracellular concentration of Ca^2+ in recombinant cell lines expressing adenosine receptor subtypes using the FLIPR™ (fluorescence imaging plate reader, Molecular Devices) technology. To allow optimal signalling through Ca^2+, chinese hamster ovary (CHO) cells were stably double-transfected with cDNAs to achieve expression of suitable combinations of adenosine receptor subtypes (A1, A2a, A2b or A3) with either G-protein Gα16 or hybrid protein Gα6qi4myr (German Patent Application no. 100333532.2). Optimal signals were achieved using combinations as follows:
(§3) For assays, recombinant cells were seeded in 96-well dishes (50000 cells/well) and grown overnight. Medium was then removed and cells incubated for 1 hour in buffer containing the dye Fluo-4. After incubation with dye, cells were washed, test compound added and changes in intracellular Ca^2+ concentration measured by FLIPR. Measured values were expressed as % change relative to controls (0%: no test compound added; 100%: 1 μM Adenosine added) and used for calculation of dose-response curves and subsequent determination of EC50 values.

Series [2] deals with T2, Adenosine A2a receptor (Homo sapiens, UniProt P29274).
T2 construct: expressed in transfected cells; host or cells: CHO (Chinese hamster ovary) cells, stably double-transfected
In words: FLIPR intracellular Ca2+ functional assay, recombinant CHO cells (A2a/Gα16). The series is classed as cell-based. The method, then: as §1, §2, §3

The target of series [3] is T3, Adenosine A2b receptor (Homo sapiens, UniProt P29275).
T3 construct: expressed in transfected cells; host or cells: CHO (Chinese hamster ovary) cells, stably double-transfected
T3 sequence (P29275 1-332): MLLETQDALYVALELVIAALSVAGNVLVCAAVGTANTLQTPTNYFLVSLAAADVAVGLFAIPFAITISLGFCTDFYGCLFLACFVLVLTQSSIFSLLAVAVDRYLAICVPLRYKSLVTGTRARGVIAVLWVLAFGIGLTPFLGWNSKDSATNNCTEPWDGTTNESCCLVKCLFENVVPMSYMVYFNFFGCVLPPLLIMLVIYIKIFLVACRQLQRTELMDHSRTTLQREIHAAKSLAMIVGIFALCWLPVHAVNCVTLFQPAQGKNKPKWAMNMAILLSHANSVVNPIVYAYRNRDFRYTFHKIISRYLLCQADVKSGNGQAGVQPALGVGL
The experiment in a line: FLIPR intracellular Ca2+ functional assay, recombinant CHO cells (A2b/Gα16). The class given is cell-based. The method, then:
as §1, §2, §3

Series [4] deals with T4, Adenosine A3 receptor (Homo sapiens, UniProt P0DMS8).
T4 construct: expressed in transfected cells; host or cells: CHO (Chinese hamster ovary) cells, stably double-transfected
T4 sequence (P0DMS8 1-318): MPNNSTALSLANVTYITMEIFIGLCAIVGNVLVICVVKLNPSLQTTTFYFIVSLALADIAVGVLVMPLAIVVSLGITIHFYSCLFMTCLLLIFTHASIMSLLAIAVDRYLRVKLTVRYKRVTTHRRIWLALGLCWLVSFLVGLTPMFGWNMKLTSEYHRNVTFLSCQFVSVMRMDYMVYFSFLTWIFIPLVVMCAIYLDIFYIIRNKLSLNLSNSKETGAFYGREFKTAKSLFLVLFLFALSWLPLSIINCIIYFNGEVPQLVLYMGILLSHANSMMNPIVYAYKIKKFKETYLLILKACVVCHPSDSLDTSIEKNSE
In words: FLIPR intracellular Ca2+ functional assay, recombinant CHO cells (A3/Gα6qi4myr). The series is classed as cell-based. To be noted: read-out: EC50 values (agonist activity at adenosine receptors) A3. The method, then: as §1, §2, §3

Series [5] has as its system isolated guinea pig atrium. The experiment in a line: Effect on the isolated guinea pig atrium (contractile force, heart rate). To be noted: for Contractile force: at 30 μM; for Heart rate: at 1–100 μM. The method, then:
D. Effect on the Isolated Guinea Pig Atrium:
Guinea pigs of either sex were killed by a blow on the back of the neck and exsanguinated.
Their heart was taken out and the atria removed. The preparation (atrium) was immediately transferred to Ringer solution (JT 431) which was at a temperature of 32° C. and was bubbled with a mixture of 95% O2 and 5% CO2. The composition of the solution in […] was: NaCl 9.0; KCl 0.42 CaCl2 0.24; NaHCO3 0.2; glucose 1.0. The atrium beats spontaneously with an initial tension of 500 mg. The contractile force and the heart rate was recorded with a computer program and automatically calculated (B-mon and A-mon PC programs. Fa. Jäckel. Hanau. GERMANY). After equilibration, the test compound was added to a final bath concentration. N was 4-6 per concentration.

For series [6], the system named is isolated rat adipocytes. In words: Antilipolytic effect in isolated rat adipocytes. The series is classed as cell-based. The note with it: Adipocyte, adenosine deaminase-induced lipolysis (glycerol and free fatty acid release). The method, then:
E. Antilipolytic Effect in Isolated Rat Adipocytes:
For the preparation of isolated rat adipocytes, epididymal fat pads were obtained from male Sprague-Dawley rats (150-180 g) killed by decapitation. The main fat pad blood vessel was removed with forceps and the pads were cut into small pieces. Digestion was carried out at 37° C. in a shaking water bath by treating 1 g of sliced pad for 20 min with 3 ml of 1 mg/ml collagenase (type I, CLS, Worthington) in 1% BSA, fraction V, in KRH (Krebs-Ringer solution buffered with 25 mM HEPES/KOH, pH 7.4, containing 2.5 mM CaCl2, 2 mM glucose, 1 mM sodium pyruvate, 0.5 units/ml adenosin deaminase and 200 nM phenylisopropyl adenosine). The adipocytes were filtered through nylon mesh of sufficient pore size that no pressure other than gentle teasing with a plastic spatula was necessary for the cells to pass through. After three cycles of centrifugation (500 g, 1 min), aspiration of the infranatant. and resuspension in KRH containing 1% BSA, the cells were suspended in KRH containing 4% defatted BSA. Small aliquots of the final suspension were aspirated into capillary hematocrit tubes and centrifuged for 1 min in a Microhematocrit centrifuge in order to determine what fraction of the suspension consisted of fat cells. Results expressed as activities per unit volume of packed adipocytes (corresponding to equivalent numbers of cells) are based on this centrifugation procedure. Lipolysis was initiated by addition of a 100 μl aliquot of the adipocyte suspension to 700 μl of incubation medium [prewarmed to 37° C. and consisting of KRH, 4% defatted BSA and 1 U/ml adenosine deaminase (type I, Sigma)], with or without addition of 8 μl of a solution of the appropriate test substance in 100% DMSO (at a concentration corresponding to 100 times its concentration in the final mixture). […] Incubations were performed in 5 ml polypropylene vials agitated in a shaking water bath (140 cycles/min, amplitude 4.5 cm) at 37° C. for 20, 40, and 60 min. The incubation was terminated by addition of 200 μl of 50 mM EDTA buffered to pH 7.4 with Tris. For the glycerol determination, the whole mixture was mixed rapidly and homogenized with a ground glass pestle in a 1 ml ground glass homogenizing tube (10 pulses). The homogenate was transferred immediately to a 1.5 ml Eppendorf cup precooled to 4° C., after which the extracts were maintained at 4° C. The homogenate was then centrifuged (10,000 g, 15 min) and the infranatant below the fat cake removed with a glass Pasteur pipette. taking care not to aspirate the membrane pellet. and transferred to another Eppendorf cup. 300 μl aliquots of the infranatant were added to 300 μl volumes of 10% (w/v) HClO4. The precipitate was in each case removed by centrifugation (10,000 g, 2 min) and the supernatant neutralized with 20% (w/v) KOH, followed by addition of 50 μl of 1 M Tris/HCl, pH 7.4, A 50 μl sample was then incubated (5 min, 37° C.) with 1 ml of 0.1 M HEPES/KOH, pH 7.5, containing 2 mM ATP, 0.5 mM 4-aminoantipyrine, 1 mM EDTA, 0.5 U glycerol kinase, 4 U glycerol-3-phosphate oxidase, 2 U peroxidase, 2.7 mM p-chlorophenol, 0.04% Triton X-100 and 2 mM MgSO4.7H2O, and the glycerol content determined from the absorbance at 505 nm. For the determination of free fatty acids, 300 μl aliquots of the incubation mixture were added to 3 ml of chloroform/heptane (1:1 v/v) containing 2% (v/v) methanol. and the liberated free fatty acids determined with copper reagent and bathocuproine. The inhibitory activities of the cyclipostins were calculated from the combined results (glycerol and free fatty acid release) by plotting the log of the dose against the percent response (with the adenosine deaminase-induced lipolysis set at 100%). Data in the linear portion of the log (dose)-percent response curves were analyzed using parallel-line bioassay techniques.

Structures are written as SMILES.

Data on two compounds can be found in patent US7265111B2, “Adenosine analogues and their use as pharmaceutical agents” (Sanofi-Aventis Deutschland GmbH, priority 2002, dated 2007).

T2 sequence (P29274 whole entry): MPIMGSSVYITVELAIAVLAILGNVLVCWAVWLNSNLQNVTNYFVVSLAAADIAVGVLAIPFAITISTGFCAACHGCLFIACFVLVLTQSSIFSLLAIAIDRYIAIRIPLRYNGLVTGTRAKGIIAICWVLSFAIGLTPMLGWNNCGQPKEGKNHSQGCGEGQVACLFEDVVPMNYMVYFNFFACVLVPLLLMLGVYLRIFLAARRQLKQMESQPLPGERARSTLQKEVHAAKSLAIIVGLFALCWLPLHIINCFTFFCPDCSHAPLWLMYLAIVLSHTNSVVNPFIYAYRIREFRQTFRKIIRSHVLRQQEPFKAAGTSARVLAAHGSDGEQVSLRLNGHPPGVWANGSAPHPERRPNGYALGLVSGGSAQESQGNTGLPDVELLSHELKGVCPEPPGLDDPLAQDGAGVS

The compound `O[C@@H]1[C@@H](CF)C[C@@H](n2cnc3c(N[C@H]4CCN(c5ccc(C(F)(F)F)cc5)C4)ncnc32)[C@@H]1O` [Example 7, (1R,2S, 3R, 5S)-3-{6-[1-(4-trifluoromethyl-phenyl-1-yl) -pyrrolidin-3(S)-ylamino]-purin-9-yl}-5-fluoromethyl-cyclopentane-1,2-diol] had a melting point of 178 °C. For the same compound, the EC50 in series [1] was 1250 nM. The “EC50 values (agonist activity at adenosine receptors) A2A” value in series [2] was “Inactive”. The EC50 in series [3] (read-out: EC50 values (agonist activity at adenosine receptors) A2B) is over 30000 nM. In addition, the concentration for a half-maximal effect (EC50) in series [4] is over 50000 nM. Further, in series [5], the Contractile force is on record as −1% at 30 μM and the Heart rate result is “no effect at 1–100 μM”. Also, in series [6], the IC50 was found to be 5 nM.

In the case of `O[C@@H]1[C@@H](COC(F)(F)F)C[C@@H](n2cnc3c(N[C@H]4CCN(c5ccc(C(F)(F)F)cc5)C4)ncnc32)[C@@H]1O` [Example 10, (1R,2S,3R,5R)-3-{6-[1-(4-trifluoromethyl-phenyl-1-yl)-pyrrolidin-3(S)-ylamino]-purin-9-yl}-5-trifluoromethoxymethyl-cyclopentane-1,2-diol], the melting point stood at 153 °C. For the same compound, in series [1], the EC50 came out at 15400 nM. Further, the “EC50 values (agonist activity at adenosine receptors) A2A” value in series [2] is on record as “Inactive”. The “EC50 values (agonist activity at adenosine receptors) A2B” value in series [3] is “inactive”. In addition, the EC50 in series [4] was over 50000 nM. For the same compound, in series [5], the Contractile force result is recorded as “+3% at 30 μM” and the Heart rate entry is “no effect at 1–100 μM”. The same compound displayed an IC50 in series [6] of 100 nM.

Broadly, the EC50 is the concentration needed to bring the measured effect to its halfway point. As a reminder, the IC50 is the concentration needed to halve the response being measured. Higher therefore signals weaker potency. The term melting point denotes the temperature of the solid-liquid transition.
